A word on the IC50: it is the concentration needed to halve the response being measured.

The target in data set [1] is T1, human recombinant C-terminal His-tagged LDHA (Homo sapiens, UniProt P00338).
T1 construct: His (C)
Briefly: Human LDHA enzyme assay. Type of data set: biochemical. The note with it: 50 μM pyruvate, 50 μM NADH, no HSA. The method, then: (§1) Compounds were dissolved in DMSO and preincubated with human recombinant C-terminal His-tagged LDHA (0.070 μg/mL) for 10 min at room temperature in assay buffer consisting 50 mM Tris, pH 7.5 and 100 mM NaCl in black walled, clear bottom, non-binding 96-well plates. Equal volumes of substrate solution containing 100 μM of pyruvate and 100 μM of NADH in assay buffer was added to each well (final concentration 0.035 μg/mL enzyme, 50 μM pyruvate, 50 μM NADH, and 1% DMSO). For human serum albumin (HSA) shift assay, the compounds were preincubated with the enzyme in assay buffer containing 20% HSA before substrate addition (final concentration 10% HSA). The reaction was monitored at 340 nm on a plate reader (Molecular Devices) in kinetic mode for 15 min. The rate of the reaction was determined by plotting absorbance vs time.

Data set [2] in a line: Liver-targeted tissue distribution profile study in rats. Type of data set: in vivo, Sprague Dawley rats. The conditions noted are these: rat, single 10 mg/kg PO. The method, then: Plasma and liver (target organ) concentrations of test compounds were determined in rats following a single per os (PO) administration of the test compounds. Male Sprague Dawley rats (6-8 weeks of age, Charles River Labs) were fasted overnight and a single dose of test compounds (10 mg/kg; as a suspension in 0.5% methyl cellulose) was administered by PO gavage. Rats were then sacrificed at 4 and 24 h after administration of the test compounds, and plasma and liver tissue samples were collected. Liver tissue samples were homogenized in 5 volumes of water:acetonitrile (50/50; v/v) mixture using a bead mill homogenizer. Plasma and liver homogenate samples were processed by protein precipitation using acetonitrile and the concentrations of the test compounds were determined by liquid chromatography-tandem mass spectrometry (SciEx triple quad 5500+ with Exion UPLC).
Liver and plasma exposures at the 4 h and 24 h timepoints for the various compounds are described in Table 5 below. Measured compound concentrations are as follows: ++++>10 μM; 10 μM≥+++>5 μM; 5 μM≥++>1 μM; 1 μM≥+>0.25 μM; and 0.25 μM≥−.

Data set [3] addresses T1, human recombinant C-terminal His-tagged LDHA. The data set can be described thus: Human LDHA enzyme assay, human serum albumin (HSA) shift. Type of data set: biochemical. The note with it: final concentration 10% HSA. The method, then: as §1
The test system of data set [4] is fresh primary mouse hepatocytes. The data set can be described thus: Primary mouse hepatocyte assay (lactate production). Type of data set: cell-based. The method, then: Compounds were evaluated in an ex vivo assay consisting of fresh primary mouse hepatocytes. Hepatocytes were isolated from wild type mice (C57BL/6NCrl from Charles River Labs) using a two-step collagenase perfusion technique which involves a sequential perfusion of anesthetized mice with Hanks' balanced salt solution and collagenase. Following isolation, viable wild type hepatocytes (0.1 M cells/well) were incubated with test compound in presence of pyruvate and compound potency was evaluated by measuring the lactate produced by the cells using liquid chromatography coupled to mass spectrometry. Chromatographic separation was achieved on an XDB-C18 4.6×50 mm column (Agilent, Cat #927975-902) at a flow rate of 1 mL/min Mobile phase A consisted of 0.1% formic acid in water and mobile phase B consisted of acetonitrile. A gradient program was initiated starting at 5% B which was held for 1 minutes, then ramped from 5% to 95% B over 1 minute. After holding at 95% B for 1 minute, the program changed back to 5% B. The column was equilibrated with 5% B for […] before the next injection. The mass spectrometer was operated in negative mode with electrospray ionization. The following transition along with their collision energy (CE) were used: 89→43 (CE: −16 V) for lactate and 92→45 (CE: −16 V) for ^13C3-Lactate (internal standard).

[5] abbreviates: Run at 0.4M cells/well concentration of hepatocytes.

As to `NS(=O)(=O)c1ccc(Cc2c(-c3ccc(F)cc3)nn(-c3nc(C(=O)O)cs3)c2CC2CC2)cc1F` [Example 1, 2-(5-(cyclopropylmethyl)-4-(3-fluoro-4-sulfamoylbenzyl)-3-(4-fluorophenyl)-1H-pyrazol-1-yl)thiazole-4-carboxylic acid], in data set [1], the 50% inhibitory concentration (IC50) was below 1 nM. Further, in data set [2], the “Measured Compound Concentrations Liver - 4 h” value is reported as “++++ (++++>10 μM)”, the “Measured Compound Concentrations Liver - 24 h” value was “+ (1 μM≥+>0.25 μM)”, the “Measured Compound Concentrations Plasma - 4 h” value is on record as “− (0.25 μM≥−)” and the “Measured Compound Concentrations Plasma - 24 h” value is “− (0.25 μM≥−)”. Further, the IC50 in data set [3] lay in the range of 1 to 10 nM. For the same compound, the IC50 in data set [4] (0.1 M cells/well) is below 100 nM.

As for `N#Cc1cc(-c2nn(-c3nc(C(=O)O)cs3)c(CC3CC3)c2Cc2ccc(S(N)(=O)=O)c(F)c2)ccc1F` [Example 2, 2-(3-(3-Cyano-4-fluorophenyl)-5-(cyclopropylmethyl)-4-(3-fluoro-4-sulfamoylbenzyl)-1H-pyrazol-1-yl)thiazole-4-carboxylic acid], the IC50 in data set [1] was below 1 nM. Besides, in data set [2], the “Measured Compound Concentrations Liver - 4 h” value is reported as “+++ (10 μM≥+++>5 μM)”, the “Measured Compound Concentrations Liver - 24 h” value is recorded as “− (0.25 μM≥−)”, the “Measured Compound Concentrations Plasma - 4 h” value is given as “− (0.25 μM≥−)” and the “Measured Compound Concentrations Plasma - 24 h” value was “− (0.25 μM≥−)”. In addition, in data set [3], the IC50 is 1 to 10 nM. In data set [4] (0.1 M cells/well), this compound registered an IC50 below 100 nM.

Take `NS(=O)(=O)c1ccc(Cc2c(-c3ccc(F)c(Cl)c3)nn(-c3nc(C(=O)O)cs3)c2CC2CC2)cc1F` [Example 8, 2-(3-(3-Chloro-4-fluorophenyl)-5-(cyclopropylmethyl)-4-(3-fluoro-4-sulfamoylbenzyl)-1H-pyrazol-1-yl)thiazole-4-carboxylic acid]: in data set [1], the IC50 was below 1 nM. For the same compound, in data set [2], the “Measured Compound Concentrations Liver - 4 h” value is given as “+++ (10 μM≥+++>5 μM)”, the “Measured Compound Concentrations Liver - 24 h” value is listed as “− (0.25 μM≥−)”, the “Measured Compound Concentrations Plasma - 4 h” value is listed as “− (0.25 μM≥−)” and the “Measured Compound Concentrations Plasma - 24 h” value was “− (0.25 μM≥−)”. For the same compound, in data set [3], the IC50 lay within 1 to 10 nM. Moreover, in data set [4] (setting [5]), the IC50 lay within 100 to 250 nM.

For the compound `NS(=O)(=O)c1ccc(Cc2c(-c3ccc(F)cc3)nn(-c3nc(C(=O)O)co3)c2CC2CC2)cc1F` [Example 9, 2-(5-(Cyclopropylmethyl)-4-(3-fluoro-4-sulfamoylbenzyl)-3-(4-fluorophenyl)-1H-pyrazol-1-yl)oxazole-4-carboxylic acid], in data set [1], the IC50 was below 1 nM. Further, in data set [2], the “Measured Compound Concentrations Liver - 4 h” value is “++ (5 μM≥++>1 μM)”, the “Measured Compound Concentrations Liver - 24 h” value is “− (0.25 μM≥−)”, the “Measured Compound Concentrations Plasma - 4 h” value is on record as “− (0.25 μM≥−)” and the “Measured Compound Concentrations Plasma - 24 h” value was “− (0.25 μM≥−)”. In data set [3], the IC50 is 1 to 10 nM. Moreover, the IC50 in data set [4] (setting [5]) fell in the range of 100 to 250 nM.

Turning to `N#Cc1cccc(-c2nn(-c3nc(C(=O)O)cs3)c(CC3CC3)c2Cc2ccc(S(N)(=O)=O)c(F)c2)c1` [Example 11, 2-(3-(3-cyanophenyl)-5-(cyclopropylmethyl)-4-(3-fluoro-4-sulfamoylbenzyl)-1H-pyrazol-1-yl)thiazole-4-carboxylic acid], the IC50 in data set [1] was below 1 nM. In data set [2], the “Measured Compound Concentrations Liver - 4 h” value is given as “+++ (10 μM≥+++>5 μM)”, the “Measured Compound Concentrations Liver - 24 h” value is “− (0.25 μM≥−)”, the “Measured Compound Concentrations Plasma - 4 h” value was “− (0.25 μM≥−)” and the “Measured Compound Concentrations Plasma - 24 h” value is reported as “− (0.25 μM≥−)”. Moreover, in data set [3], the IC50 lay in the range of 1 to 10 nM. In data set [4] (0.1 M cells/well), this compound yielded a concentration for half-maximal inhibition (IC50) below 100 nM.

Regarding `NS(=O)(=O)c1ccc(Cc2c(-c3ccc(F)c(F)c3)nn(-c3nc(C(=O)O)cs3)c2CC2CC2)cc1F` [Example 12, 2-(5-(Cyclopropylmethyl)-3-(3,4-difluorophenyl)-4-(3-fluoro-4-sulfamoylbenzyl)-1H-pyrazol-1-yl)thiazole-4-carboxylic acid], the IC50 in data set [1] was below 1 nM. Besides, in data set [2], the “Measured Compound Concentrations Liver - 4 h” value is recorded as “+++ (10 μM≥+++>5 μM)”, the “Measured Compound Concentrations Liver - 24 h” value is reported as “− (0.25 μM≥−)”, the “Measured Compound Concentrations Plasma - 4 h” value is on record as “− (0.25 μM≥−)” and the “Measured Compound Concentrations Plasma - 24 h” value is “− (0.25 μM≥−)”. For the same compound, the IC50 in data set [3] lay within 1 to 10 nM. Further, the IC50 in data set [4] (0.1 M cells/well) was below 100 nM.

For `NS(=O)(=O)c1ccc(Cc2c(-c3cccc(F)c3)nn(-c3nc(C(=O)O)cs3)c2CC2CC2)cc1F` [Example 14, 2-(5-(cyclopropylmethyl)-4-(3-fluoro-4-sulfamoylbenzyl)-3-(3-fluorophenyl)-1H-pyrazol-1-yl)thiazole-4-carboxylic acid], in data set [1], the IC50 was below 1 nM. In data set [2], the “Measured Compound Concentrations Liver - 4 h” value is on record as “++++ (++++>10 μM)”, the “Measured Compound Concentrations Liver - 24 h” value is recorded as “+ (1 μM≥+>0.25 μM)”, the “Measured Compound Concentrations Plasma - 4 h” value was “− (0.25 μM≥−)” and the “Measured Compound Concentrations Plasma - 24 h” value is recorded as “− (0.25 μM≥−)”. Further, the IC50 in data set [3] lay in the range of 1 to 10 nM. This compound also showed an IC50 in data set [4] (setting [5]) below 100 nM.

For the compound `NS(=O)(=O)c1ccc(Cc2c(-c3cc(F)cc(F)c3)nn(-c3nc(C(=O)O)cs3)c2CC2CC2)cc1F` [Example 15, 2-(5-(cyclopropylmethyl)-3-(3,5-difluorophenyl)-4-(3-fluoro-4-sulfamoylbenzyl)-1H-pyrazol-1-yl)thiazole-4-carboxylic acid], the 50% inhibitory concentration (IC50) in data set [1] is below 1 nM. Besides, in data set [2], the “Measured Compound Concentrations Liver - 4 h” value is given as “++++ (++++>10 μM)”, the “Measured Compound Concentrations Liver - 24 h” value is reported as “+ (1 μM≥+>0.25 μM)”, the “Measured Compound Concentrations Plasma - 4 h” value is “− (0.25 μM≥−)” and the “Measured Compound Concentrations Plasma - 24 h” value is listed as “− (0.25 μM≥−)”. Moreover, the IC50 in data set [3] lay in the range of 1 to 10 nM. In addition, the IC50 in data set [4] (setting [5]) is below 100 nM.

On to `NS(=O)(=O)c1ccc(Cc2c(-c3ccc(Cl)cc3)nn(-c3nc(C(=O)O)cs3)c2CC2CC2)cc1F` [Example 16, 2-(3-(4-chlorophenyl)-5-(cyclopropylmethyl)-4-(3-fluoro-4-sulfamoylbenzyl)-1H-pyrazol-1-yl)thiazole-4-carboxylic acid], for which, in data set [1], the IC50 is below 1 nM. In addition, in data set [2], the “Measured Compound Concentrations Liver - 4 h” value is recorded as “++ (5 μM≥++>1 μM)”, the “Measured Compound Concentrations Liver - 24 h” value was “− (0.25 μM≥−)”, the “Measured Compound Concentrations Plasma - 4 h” value is “− (0.25 μM≥−)” and the “Measured Compound Concentrations Plasma - 24 h” value was “− (0.25 μM≥−)”. The IC50 in data set [3] fell in the range of 10 to 100 nM. The IC50 in data set [4] (setting [5]) is below 100 nM.

For the compound `COc1cc(-c2nn(-c3nc(C(=O)O)cs3)c(CC3CC3)c2Cc2ccc(S(N)(=O)=O)c(F)c2)ccc1C#N` [Example 23, 2-(3-(4-cyano-3-methoxyphenyl)-5-(cyclopropylmethyl)-4-(3-fluoro-4-sulfamoylbenzyl)-1H-pyrazol-1-yl)thiazole-4-carboxylic acid], the values for the IC50 in data set [1], in data set [3] and in data set [4] (0.1 M cells/well) were below 1 nM, 1 to 10 nM and below 100 nM, respectively.

On to `COc1cc(F)cc(-c2nn(-c3nc(C(=O)O)cs3)c(CC3CC3)c2Cc2ccc(S(N)(=O)=O)c(F)c2)c1` [Example 24, 2-(5-(cyclopropylmethyl)-4-(3-fluoro-4-sulfamoylbenzyl)-3-(3-fluoro-5-methoxyphenyl)-1H-pyrazol-1-yl)thiazole-4-carboxylic acid], for which the IC50 in data set [1] was 1 to 10 nM; in data set [3] it was 1 to 10 nM; in data set [4] (0.1 M cells/well) it was below 100 nM.

Turning to `NS(=O)(=O)c1c(F)cc(Cc2c(-c3ccc(F)cc3)nn(-c3nc(C(=O)O)cs3)c2CC2CC2)cc1F` [Example 27, 2-(5-(Cyclopropylmethyl)-4-(3,5-difluoro-4-sulfamoylbenzyl)-3-(4-fluorophenyl)-1H-pyrazol-1-yl)thiazole-4-carboxylic acid], the IC50 in data set [1] was below 1 nM; in data set [3] it was 1 to 10 nM; in data set [4] (0.1 M cells/well), 100 to 250 nM.
